Results from patent US20050113566A1, “Inhibitors of C-FMS kinase” (priority 2003, published 2005).

Target: c-fms (Homo sapiens, UniProt P07333)
Assay: autophosphorylation, fluorescence polarization competition immunoassay for c-fms inhibition
Assay type: biochemical
Conditions: 10 nM c-fms, 1 mM ATP; for IC50: averages of three independent measurements; for inhibition at 2 µM: at 2 μM compound
Method: The assay buffer used was 100 mM 4-(2-hydroxyethyl)piperazine 1-ethanesulfonic acid (HEPES), pH 7.5, 1 mM 1,4-dithio-DL-threitol (DTT), 0.01% (v/v) Tween-20. Compounds were diluted in assay buffer containing 4% dimethylsulfoxide (DMSO) just prior to the assay. To each well, 5 μL of compound were added followed by the addition of 3 μL of a mix containing 33 nM c-fms (Johnson & Johnson PRD) and 16.7 mM MgCl2 (Sigma) in assay buffer. The kinase reaction was initiated by adding 2 μL of 5 mM ATP (Sigma) in assay buffer. The final concentrations in the assay were 10 nM c-fms, 1 mM ATP, 5 mM MgCl2, 2% DMSO. Control reactions were ran in each plate: in positive and negative control wells, assay buffer (made 4% in DMSO) was substituted for the compound; in addition, positive control wells received 1.2 μL of 50 mM ethylenediaminetetraaceticacid (EDTA).
The plates were incubated at room temperature for 45 min. At the end of the incubation, the reaction was quenched with 1.2 μL of 50 mM EDTA (EDTA was not added to the positive control wells at this point; see above). Following a 5-min incubation, each well received 10 μL of a 1:1:3 mixture of anti-phosphotyrosine antibody, 10×, PTK green tracer, 10× (vortexed), FP dilution buffer, respectively (all from PanVera, cat. # P2837). The plate was covered, incubated for 30 min at room temperature and the fluorescence polarization was read on the Analyst. The instrument settings were: 485 nm excitation filter; 530 nm emission filter; Z height: middle of well; G factor: 0.93. […] The reported IC50 values are averages of three independent measurements.

c-fms, sequence (P07333 20-972): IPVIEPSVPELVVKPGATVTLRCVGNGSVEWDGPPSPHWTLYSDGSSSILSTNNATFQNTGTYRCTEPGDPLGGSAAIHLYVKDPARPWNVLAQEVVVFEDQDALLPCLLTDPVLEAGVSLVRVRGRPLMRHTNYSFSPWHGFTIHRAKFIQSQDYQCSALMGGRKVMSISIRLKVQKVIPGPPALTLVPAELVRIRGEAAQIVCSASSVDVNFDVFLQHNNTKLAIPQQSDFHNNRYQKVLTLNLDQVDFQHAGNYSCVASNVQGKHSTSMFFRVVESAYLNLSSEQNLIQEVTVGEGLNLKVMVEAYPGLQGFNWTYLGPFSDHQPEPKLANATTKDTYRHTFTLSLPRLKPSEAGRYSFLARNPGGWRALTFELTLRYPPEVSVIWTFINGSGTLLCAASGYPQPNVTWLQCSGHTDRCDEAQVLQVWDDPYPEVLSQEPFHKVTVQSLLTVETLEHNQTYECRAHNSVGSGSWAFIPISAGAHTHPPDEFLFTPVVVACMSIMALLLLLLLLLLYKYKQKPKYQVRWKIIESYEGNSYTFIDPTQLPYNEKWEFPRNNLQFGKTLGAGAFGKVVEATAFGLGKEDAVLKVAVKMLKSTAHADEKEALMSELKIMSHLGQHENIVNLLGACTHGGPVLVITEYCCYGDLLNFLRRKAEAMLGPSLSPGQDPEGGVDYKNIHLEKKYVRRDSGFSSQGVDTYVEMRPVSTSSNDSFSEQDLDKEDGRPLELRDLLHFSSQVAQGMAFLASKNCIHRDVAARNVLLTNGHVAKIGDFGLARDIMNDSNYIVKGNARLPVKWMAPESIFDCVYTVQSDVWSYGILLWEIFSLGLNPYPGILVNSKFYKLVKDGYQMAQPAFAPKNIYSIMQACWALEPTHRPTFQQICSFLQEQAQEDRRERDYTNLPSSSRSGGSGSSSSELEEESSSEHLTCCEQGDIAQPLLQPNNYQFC

Structure (SMILES)	IC50	inhibition at 2 µM
N#Cc1ccc(C(=O)Nc2ccccc2-c2ccccc2)o1	< 5 µM	54%
N#Cc1ccc(C(=O)Nc2ccccc2C2=CCCCC2)o1	< 1 µM	85%
N#Cc1ccc(C(=O)Nc2ccccc2-c2ccco2)o1		13%
N#Cc1ccc(C(=O)Nc2ccccc2-c2cccs2)o1		25%
N#Cc1ccc(C(=O)Nc2ccccc2C2CCCCC2)o1		29%
